System: Candida albicans
Test: Oral and parenteral in vivo efficacy in mice experimentally infected with Candida albicans (survival time)
Design: species or system Mäusen (Stamm HOE: NMRKF; SPF 71)
Settings: for d̄ Tage: mean survival time of 5 mice; for Überlebenszeit in % (Standardpräp.= 100%): relative to Ketoconazol = 100%
Method: Zur Feststellung der oralen und parenteralen Wirksamkeit wurden Gruppen von je 5 18-20 g schweren Mäusen (Stamm HOE: NMRKF; SPF 71) mit 2 . 10^6 Keimen/Tier infiziert.
Die Behandlung der Tiere erfolgte oral bzw. subcutan in 8 gleichen Einzeldosen zu je 30 mg/kg bzw. 10 mg/kg Körpergewicht (-24/-18/-2h/+2/24/30/48/54h).
Neben der mit den erfindungsgemäßen Substanzen I behandelten Gruppe von 5 Tieren wurde zum Vergleich eine Gruppe von ebenfalls 5 Tieren mit der Referenzsubstanz Ketoconazol behandelt. Eine kontrollgruppe von 10 Tieren blieb nach der Infektion unbehandelt.

Compound | d̄ Tage (Oral 8x10 mg/kg) | Überlebenszeit in % (Standardpräp.= 100%) (Oral 8x10 mg/kg) | d̄ Tage (Oral 8x30 mg/kg) | Überlebenszeit in % (Standardpräp.= 100%) (Oral 8x30 mg/kg) | d̄ Tage (Subcutan 8x10 mg/kg) | Überlebenszeit in % (Standardpräp.= 100%) (Subcutan 8x10 mg/kg) | d̄ Tage (Subcutan 8x30 mg/kg) | Überlebenszeit in % (Standardpräp.= 100%) (Subcutan 8x30 mg/kg)
OC(Cn1cncn1)(c1ccc(Cl)cc1)C1CC1c1ccc(Cl)cc1 (single isomer, unassigned) [34 b] | 11,6 Tage | 207,1% | 13,0 Tage | 162,5% | 11,0 Tage | 171,9% | 8,0 Tage | 100,0%
CC(=O)N1CCN(c2ccc(OCC3COC(Cn4ccnc4)(c4ccc(Cl)cc4Cl)O3)cc2)CC1 (centres unmarked) [Ketoconazol, reference compound] | 5,6 Tage | 100,0% | 8,0 Tage | 100,0% | 6,4 Tage | 100,0% | 8,0 Tage | 100,0%
OC(Cn1cncn1)(c1ccc(F)cc1)C1CC1c1ccc(Cl)cc1Cl (single isomer, unassigned) [27 b] | 9,2 Tage | 164,3% | 11,6 Tage | 145,0% | 10,4 Tage | 162,5% | 12,6 Tage | 157,5%
OC(Cn1cncn1)(c1ccc(Cl)cc1Cl)C1CC1c1ccc(Cl)cc1 (single isomer, unassigned) [29 a] | 6,8 Tage | 121,4% | 9,8 Tage | 122,5% | 7,2 Tage | 112,5% | 11,4 Tage | 142,5%

— EP0212605A2, “Azolyl-cyclopropyl-ethanol derivatives, processes for their preparation and their use” (HOECHST AKTIENGESELLSCHAFT, priority 1985, dated 1987)
